This note sets out measurements from patent US20220348565A1, “PHARMACEUTICAL COMPOUNDS” (SENTINEL ONCOLOGY LIMITED, priority 2019, published 2022).

Each structure is given as a SMILES string.

In one data set the test system is KRAS G12V HeLa cell line. Kind of data set: HeLa cell viability, oncogenic KRasG12V transgene, Cell Titre Blue. The settings on record: KRAS G12V HeLa cells, 72 hours; listed as A-3. The data set is classed as cell-based. How it is done:
(§1) Atropisomers A-1, A-2, A-3 and A-4 were tested on HeLa cells engineered to inducibly express wild-type or oncogenic KRasG12V transgenes using the FLP-in/T-Rex system (Invitrogen). Cells were plated, and then treated with or without Doxycycline to induce transgene expression, and then treated with serially-diluted PBD inhibitors. After 72 hours of incubation, cell viability was assessed using the Cell Titre Blue reagent (Promega) and a BMG Pherastar plate reader. The effect of PBD inhibition on cell viability with either wild-type or oncogenic G12V KRAS was assessed using GraphPad Prism.
(§2) From the results obtained by following the above protocol, the GI50 values against the wild-type and KRAS G12V HeLa cell line of each of the atropisomers were determined as shown in Table 12.

Data set [1] has as its system U87MG cells. Kind of data set: Cells in mitosis (phospho-histone H3, mitotic index), U87MG. The format is cell-based. The conditions noted are these: Homo sapiens, U-87 MG; % mitotic cells (phospho-histone H3), 24 hours. From the text: (§3) Inhibiting the ability of PLK1 and PLK4 to bind to their partners through their PBDs is known to cause cells to arrest in mitosis. Experimentally, this can be measured by assessing the number of cells which are in mitosis at a certain time after treatment with a test compound by immunofluorescent detection of phosphorylated Histone H3 (pH3), a mark which is only present in mitotic cells. PLK1/4-PBD inhibitors are expected to cause a dose-dependent increase in pH3-positive cells, which is reported as Mitotic Index (MI)—the percentage of cells which, at a given time, are positive for this mitotic mark.
(§4) The following protocol was used to measure the effects of atropisomer A-2 and atropisomer A-3 on arresting cells in mitosis.
(§5) Cells were plated at 10 000/well in 96-well plates and incubated overnight. The following day atropisomer A-2 stocks in DMSO were diluted in medium then added to cells with a maximum final DMSO concentration on cells of 0.2%. Cells were incubated with the compound for 24 hours then fixed in 3.7% formaldehyde. Cells were permeabilised with 0.1% Triton X-100 then incubated with anti-phospho-histone H3 (Ser10) antibody (Abcam). The cells were washed with PBS then incubated with AlexaFluor 488 labelled goat anti-rabbit IgG (Invitrogen) in the presence of 4 ug/mL Hoechst 33342 (Invitrogen). […]

Data set [2] in a line: Mouse PK, brain exposure after p.o. dosing. The data set is classed as in vivo, Male CD-1 mice. How it is done:
(§6) Atropisomers A-2 and A-3 were evaluated in an in vivo mouse model to determine brain and plasma concentrations following p.o. and i.v. dosing.
(§7) Male CD-1 mice were dosed with the compounds of Examples A-2 and A-3, either by i.v. administration (2 mg/kg) or by p.o. administration (10 mg/kg). Eight samples were taken for analysis in the i.v. leg at 2, 10, 30 min, 1, 2, 4, 8, and 24 (for i.v) and 9 samples in the p.o. leg at 15, 30 min, 1, 2, 4, 8, 24, 48 and 72 hrs.
(§8) The compounds of Examples A-2 and A-3 were both formulated in 10% DMSO/90% hydroxypropyl-beta-cyclodextrin (20% w/v in water) for i.v. and p.o. dosing. N =3 mice per time point.
(§9) Post dosing, terminal blood samples were taken from individual animals and delivered into labelled polypropylene tubes containing anticoagulant (EDTA). The samples were held on wet ice for a maximum of 30 min while sampling of all the animals in the cohort was completed. The blood samples were centrifuged for plasma (4° C., 21100 g for 5 min) and the resulting plasma transferred into corresponding labelled tubes. Terminal brains from each PO dosed animal were excised, rinsed with saline and placed into pre-weighed labelled polypropylene tubes and the samples re-weighed prior to storage.
(§10) Quantitative bioanalysis was carried out using liquid chromatography—mass spectroscopy was performed. The results are shown in Tables 14, 15 and 16 below and in FIGS. 12 to 15.

A further data set has as its system HeLa cells. Kind of data set: Cells in mitosis (phospho-histone H3, mitotic index), HeLa. The conditions noted are these: Homo sapiens, % mitotic cells (phospho-histone H3), 24 hours. The format is cell-based.
Excerpt: as §3, §4, §5

Data set [3] concerns wild-type KRAS HeLa cells. Nature of the data set: HeLa cell viability, wild-type KRAS transgene, Cell Titre Blue. The data set is classed as cell-based. The settings on record: 72 hours, listed as A-3, read-out: WT GI50. How it is done: as §1, §2
For data set [4], the system named is U87MG cells. Kind of data set: U87MG human glioblastoma cell viability, SRB assay, 72 hours. The format is cell-based. The conditions noted are these: listed as A-3. How it is done: The following protocol was used to measure the effects of compounds of the invention on U87MG cell viability.
U87MG cells were grown in their recommended growth media/supplements (ATCC). Cells were seeded at a concentration of 5000 cells per well into 96 well plates overnight at 37° C., 5% CO2. Cells were treated with relevant concentrations of test compound for 72 hours. After 72 hours incubation, viability was established using sulforhodamine B (SRB) colorimetric assay. Percentage viability was calculated against the mean of the DMSO treated control samples, and IC50 values for inhibition of cell growth were calculated using GraphPad Prism software by nonlinear regression (4 parameter logistic equation).

Data set [5] is described as follows: Mouse PK, plasma after i.v. and p.o. dosing (oral bioavailability). The format is in vivo, Male CD-1 mice. The conditions noted are these: for half-life: read-out: T ½ (converted). The procedure:
as §6, §7, §8, §9, §10

[6] abbreviates: mouse, po, brain exposure, p.o. 10 mg/kg, male CD-1 mice.
The mark [7] stands for this setting: mouse, 2 mg/kg, 2 mq/Kq IV, male CD-1 mice, plasma.
[8] abbreviates: mouse, 10 mg/kg, 10 mq/Kq PO, male CD-1 mice, plasma.

The term GI50 denotes the concentration at which growth is held to half of that of the control. As usually defined, the EC50 is the concentration giving half of the maximal effect. Higher therefore signals a less potent agent. As a reminder, the Cmax is the highest concentration seen after dosing. Usually Tmax stands for the time at which the peak concentration occurs. In general, IC50 refers to the concentration at which inhibition is half-maximal. In general, AUC(0-inf) refers to total exposure, with the tail of the curve extrapolated. Read a low AUC(0-inf) as less exposure. Consider `CN(C)CCNC(=O)c1ccc(-c2ccc(-c3ccc(Cl)cc3)n2-c2ccccc2C(F)(F)F)nc1` (single isomer, unassigned) [Atropisomer A-3, 6-[5-(4-chlorophenyl)-1-[2-(trifluoromethyl)phenyl]pyrrol-2-yl]-N-[2-(dimethylamino)ethyl]pyridine-3-carboxamide], for which the GI50 with KRAS G12V HeLa cell line amounted to 2.6 nM; in data set [3], 4.68 nM. For the same compound, the EC50 worked out at 100 nM in the data set with U87MG cells [1] and 30 nM in the data set with HeLa cells. Moreover, the Cmax was 604 ng/mL in data set [2] (setting [6]), 274 ng/mL in data set [5] (setting [7]) and 322 ng/mL in data set [5] (setting [8]). Besides, the Tmax in data set [2] (setting [6]) came out at 8 h. In addition, the half-life is 8.2 h in data set [2] (mouse, po, brain exposure, p.o. 10 mg/kg, male CD-1 mice, read-out: T ½ (converted)); 8.4 h in data set [5] (setting [7]); 8.3 h in data set [5] (setting [8]). Besides, the AUC(0-t) in data set [2] (mouse, po, brain, p.o. 10 mg/kg, male CD-1 mice, read-out: AUClast brain) amounted to 14100 ng·h/mL; in data set [5] (mouse, po, plasma, p.o. 10 mg/kg, male CD-1 mice, read-out: AUClast plasma) it was 6920 ng·h/mL. The “brain exposure (in words)” value in data set [2] (oral dosing in mice) is on record as “high brain exposure”. Further, the IC50 in the data set with U87MG cells [4] came to 150 nM. The compound further had a CI in data set [5] (2 mq/Kq IV, male CD-1 mice, plasma) of 16.8 mL/min/kg. The compound also gave a F in data set [5] (10 mq/Kq PO vs 2 mq/Kq IV, male CD-1 mice) of 70%. The AUC(0-inf) was determined as 1990 ng·h/mL in data set [5] (setting [7]) and 6920 ng·h/mL in data set [5] (setting [8]). Also, the “oral absorption / oral bioavailability (in words)” value in data set [5] (oral dosing in mice) is reported as “highly absorbed”.
